Each block holds one compound with its values, some of them ahead of it.
Assays:
[1] = molecular target: Bile salt export pump (Homo sapiens, UniProt O95342); assay: Inhibition of human BSEP overexpressed in Sf9 cell membrane vesicles assessed as uptake of [3H]-taurocholate in presence of ATP measured after 15 to 20 mins by membrane vesicle transport assay; assay type: ADME, cell-based
[2] = molecular target: ATP-binding cassette sub-family C member 3 (Homo sapiens, UniProt O15438); assay: Inhibition of human MRP3 overexpressed in Sf9 insect cell membrane vesicles assessed as uptake of [3H]-estradiol-17beta-D-glucuronide in presence of ATP and GSH measured after 10 mins by membrane vesicle transport assay; assay type: ADME, cell-based
[3] = molecular target: T1, ATP-binding cassette sub-family C member 4 (Homo sapiens, UniProt O15439); assay: Inhibition of human MRP4 overexpressed in Sf9 cell membrane vesicles assessed as uptake of [3H]-estradiol-17beta-D-glucuronide in presence of ATP and GSH measured after 20 mins by membrane vesicle transport assay; assay type: ADME, cell-based
T1 sequence (O15439 whole entry): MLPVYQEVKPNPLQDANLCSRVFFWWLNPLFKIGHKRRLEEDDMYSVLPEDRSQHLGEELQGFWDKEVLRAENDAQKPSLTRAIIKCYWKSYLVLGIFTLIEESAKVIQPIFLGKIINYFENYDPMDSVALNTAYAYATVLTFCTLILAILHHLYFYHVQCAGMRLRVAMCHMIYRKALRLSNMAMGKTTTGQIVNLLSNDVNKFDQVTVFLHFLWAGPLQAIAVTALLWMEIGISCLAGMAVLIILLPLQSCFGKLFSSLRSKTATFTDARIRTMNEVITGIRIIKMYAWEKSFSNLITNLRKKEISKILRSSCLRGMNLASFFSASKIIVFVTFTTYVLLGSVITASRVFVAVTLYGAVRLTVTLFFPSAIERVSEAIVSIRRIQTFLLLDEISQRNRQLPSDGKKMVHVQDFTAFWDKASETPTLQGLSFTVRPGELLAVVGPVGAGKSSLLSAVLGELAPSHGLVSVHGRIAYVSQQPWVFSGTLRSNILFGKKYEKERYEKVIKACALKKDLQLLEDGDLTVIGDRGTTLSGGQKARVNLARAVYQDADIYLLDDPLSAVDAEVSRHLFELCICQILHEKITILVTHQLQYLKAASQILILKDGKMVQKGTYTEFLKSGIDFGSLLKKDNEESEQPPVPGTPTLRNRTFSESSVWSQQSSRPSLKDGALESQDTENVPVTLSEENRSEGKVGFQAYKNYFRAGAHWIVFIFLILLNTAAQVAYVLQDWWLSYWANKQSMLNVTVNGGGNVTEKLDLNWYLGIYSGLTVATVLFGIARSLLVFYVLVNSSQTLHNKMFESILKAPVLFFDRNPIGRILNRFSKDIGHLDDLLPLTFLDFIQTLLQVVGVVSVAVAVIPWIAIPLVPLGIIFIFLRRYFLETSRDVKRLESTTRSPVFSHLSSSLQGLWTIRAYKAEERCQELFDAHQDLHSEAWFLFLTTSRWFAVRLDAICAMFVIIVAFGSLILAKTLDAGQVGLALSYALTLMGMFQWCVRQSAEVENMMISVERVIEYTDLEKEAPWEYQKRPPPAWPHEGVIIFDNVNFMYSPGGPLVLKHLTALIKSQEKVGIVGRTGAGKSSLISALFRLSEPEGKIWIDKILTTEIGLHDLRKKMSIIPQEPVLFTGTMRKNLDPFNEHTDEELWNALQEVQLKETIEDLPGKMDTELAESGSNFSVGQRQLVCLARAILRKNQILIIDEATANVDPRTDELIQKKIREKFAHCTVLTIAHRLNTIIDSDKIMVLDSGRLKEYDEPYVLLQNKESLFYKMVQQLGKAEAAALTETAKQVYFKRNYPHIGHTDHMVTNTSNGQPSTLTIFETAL

[4] = AUC in human at 200 to 600 mg, po QD after 24 hrs; assay type: ADME, organism-based; settings: in vivo
[5] = Drug concentration at steady state in human at 200 to 600 mg, po QD after 24 hrs; assay type: ADME, organism-based; settings: in vivo, read-out: Css
[6] = Ratio of drug concentration at steady state in human at 200 to 600 mg, po QD after 24 hrs to IC50 for human BSEP overexpressed in Sf9 insect cells; assay type: ADME, organism-based; settings: in vivo
[7] = Ratio of drug concentration at steady state in human at 200 to 600 mg, po QD after 24 hrs to IC50 for human MRP3 overexpressed in Sf9 insect cells; assay type: ADME, organism-based; settings: in vivo
[8] = Ratio of drug concentration at steady state in human at 200 to 600 mg, po QD after 24 hrs to IC50 for human MRP4 overexpressed in Sf9 insect cells; assay type: ADME, organism-based; settings: in vivo
[9] = molecular target: ATP-binding cassette sub-family C member 2 (Homo sapiens, UniProt Q92887); assay: Inhibition of human MRP2 overexpressed in Sf9 cell membrane vesicles assessed as uptake of [3H]-estradiol-17beta-D-glucuronide in presence of ATP and GSH measured after 20 mins by membrane vesicle transport assay
[10] = AUC in human at 80 to 600 mg, po QD after 24 hrs; assay type: ADME, organism-based; settings: in vivo
[11] = Drug concentration at steady state in human at 80 to 600 mg, po QD after 24 hrs; assay type: ADME, organism-based; settings: in vivo, read-out: Css
[12] = Ratio of drug concentration at steady state in human at 80 to 600 mg, po QD after 24 hrs to IC50 for human BSEP overexpressed in Sf9 insect cells; assay type: ADME, organism-based; settings: in vivo
[13] = Ratio of drug concentration at steady state in human at 80 to 600 mg, po QD after 24 hrs to IC50 for human MRP4 overexpressed in Sf9 insect cells; assay type: ADME, organism-based; settings: in vivo
[14] = AUC in human at 60 to 100 mg/m2, iv via infusion for 1 hr every 3 weeks measured after 1 hr; assay type: ADME, organism-based; set-up: time < 1 hr, route intravenous; settings: in vivo
[15] = Drug concentration at steady state in human at 60 to 100 mg/m2, iv via infusion for 1 hr every 3 weeks measured after 1 hr; assay type: ADME, organism-based; settings: in vivo, read-out: Css
[16] = Ratio of drug concentration at steady state in human at 60 to 100 mg/m2, iv via infusion for 1 hr every 3 weeks measured after 1 hr to IC50 for human BSEP overexpressed in Sf9 insect cells; assay type: ADME, organism-based
[17] = AUC in human at 200 mg, po QD after 24 hrs; assay type: ADME, organism-based; set-up: time < 24 hr, dose 200 mg, route oral; settings: in vivo
[18] = Drug concentration at steady state in human at 200 mg, po QD after 24 hrs; assay type: ADME, organism-based; settings: in vivo, read-out: Css
[19] = Ratio of drug concentration at steady state in human at 200 mg, po QD after 24 hrs to IC50 for human BSEP overexpressed in Sf9 insect cells; assay type: ADME, organism-based; settings: in vivo
[20] = Ratio of drug concentration at steady state in human at 200 mg, po QD after 24 hrs to IC50 for human MRP4 overexpressed in Sf9 insect cells; assay type: ADME, organism-based; settings: in vivo
[21] = AUC in human at 800 mg, po TID after 8 hrs; assay type: ADME, organism-based; set-up: dose 800 mg, time < 8 hr, route oral; settings: in vivo
[22] = Drug concentration at steady state in human at 800 mg, po TID after 8 hrs; assay type: ADME, organism-based; settings: in vivo, read-out: Css
[23] = Ratio of drug concentration at steady state in human at 800 mg, po TID after 8 hrs to IC50 for human BSEP overexpressed in Sf9 insect cells; assay type: ADME, organism-based; settings: in vivo
[24] = Ratio of drug concentration at steady state in human at 800 mg, po TID after 8 hrs to IC50 for human MRP3 overexpressed in Sf9 insect cells; assay type: ADME, organism-based; settings: in vivo

Chain of Bile salt export pump (O95342 whole entry): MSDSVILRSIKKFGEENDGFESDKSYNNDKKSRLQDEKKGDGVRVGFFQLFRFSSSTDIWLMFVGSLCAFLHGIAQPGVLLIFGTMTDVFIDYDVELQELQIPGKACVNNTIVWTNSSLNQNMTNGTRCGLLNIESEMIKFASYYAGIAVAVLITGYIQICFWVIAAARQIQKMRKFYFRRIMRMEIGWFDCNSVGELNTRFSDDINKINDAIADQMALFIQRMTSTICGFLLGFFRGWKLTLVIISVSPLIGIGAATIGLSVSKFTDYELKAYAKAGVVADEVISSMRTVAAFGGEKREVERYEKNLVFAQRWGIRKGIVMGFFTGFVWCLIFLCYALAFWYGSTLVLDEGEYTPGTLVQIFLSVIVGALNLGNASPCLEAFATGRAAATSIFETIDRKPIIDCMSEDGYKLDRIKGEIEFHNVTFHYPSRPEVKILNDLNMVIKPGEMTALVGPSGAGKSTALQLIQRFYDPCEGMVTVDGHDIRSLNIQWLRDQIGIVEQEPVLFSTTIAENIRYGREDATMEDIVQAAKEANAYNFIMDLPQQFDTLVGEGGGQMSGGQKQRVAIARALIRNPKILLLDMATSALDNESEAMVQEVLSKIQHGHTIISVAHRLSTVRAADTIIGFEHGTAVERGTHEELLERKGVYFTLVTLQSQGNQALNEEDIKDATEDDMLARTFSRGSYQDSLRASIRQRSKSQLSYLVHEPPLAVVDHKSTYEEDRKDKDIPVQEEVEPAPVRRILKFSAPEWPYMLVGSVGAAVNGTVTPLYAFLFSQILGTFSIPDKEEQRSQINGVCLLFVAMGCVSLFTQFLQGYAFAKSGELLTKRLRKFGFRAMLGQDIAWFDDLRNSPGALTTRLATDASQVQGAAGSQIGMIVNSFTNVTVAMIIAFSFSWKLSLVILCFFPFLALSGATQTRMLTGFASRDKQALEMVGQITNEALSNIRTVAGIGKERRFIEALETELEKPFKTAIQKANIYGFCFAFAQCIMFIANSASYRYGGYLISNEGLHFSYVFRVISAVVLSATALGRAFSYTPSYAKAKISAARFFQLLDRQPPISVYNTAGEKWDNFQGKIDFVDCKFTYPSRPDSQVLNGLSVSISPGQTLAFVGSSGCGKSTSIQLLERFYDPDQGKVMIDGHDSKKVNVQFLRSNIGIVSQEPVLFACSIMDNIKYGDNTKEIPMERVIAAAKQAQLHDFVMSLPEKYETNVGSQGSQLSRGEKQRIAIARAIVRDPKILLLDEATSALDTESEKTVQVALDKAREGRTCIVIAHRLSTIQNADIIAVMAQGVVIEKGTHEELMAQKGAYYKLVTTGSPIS
Chain of ATP-binding cassette sub-family C member 2 (Q92887 whole entry): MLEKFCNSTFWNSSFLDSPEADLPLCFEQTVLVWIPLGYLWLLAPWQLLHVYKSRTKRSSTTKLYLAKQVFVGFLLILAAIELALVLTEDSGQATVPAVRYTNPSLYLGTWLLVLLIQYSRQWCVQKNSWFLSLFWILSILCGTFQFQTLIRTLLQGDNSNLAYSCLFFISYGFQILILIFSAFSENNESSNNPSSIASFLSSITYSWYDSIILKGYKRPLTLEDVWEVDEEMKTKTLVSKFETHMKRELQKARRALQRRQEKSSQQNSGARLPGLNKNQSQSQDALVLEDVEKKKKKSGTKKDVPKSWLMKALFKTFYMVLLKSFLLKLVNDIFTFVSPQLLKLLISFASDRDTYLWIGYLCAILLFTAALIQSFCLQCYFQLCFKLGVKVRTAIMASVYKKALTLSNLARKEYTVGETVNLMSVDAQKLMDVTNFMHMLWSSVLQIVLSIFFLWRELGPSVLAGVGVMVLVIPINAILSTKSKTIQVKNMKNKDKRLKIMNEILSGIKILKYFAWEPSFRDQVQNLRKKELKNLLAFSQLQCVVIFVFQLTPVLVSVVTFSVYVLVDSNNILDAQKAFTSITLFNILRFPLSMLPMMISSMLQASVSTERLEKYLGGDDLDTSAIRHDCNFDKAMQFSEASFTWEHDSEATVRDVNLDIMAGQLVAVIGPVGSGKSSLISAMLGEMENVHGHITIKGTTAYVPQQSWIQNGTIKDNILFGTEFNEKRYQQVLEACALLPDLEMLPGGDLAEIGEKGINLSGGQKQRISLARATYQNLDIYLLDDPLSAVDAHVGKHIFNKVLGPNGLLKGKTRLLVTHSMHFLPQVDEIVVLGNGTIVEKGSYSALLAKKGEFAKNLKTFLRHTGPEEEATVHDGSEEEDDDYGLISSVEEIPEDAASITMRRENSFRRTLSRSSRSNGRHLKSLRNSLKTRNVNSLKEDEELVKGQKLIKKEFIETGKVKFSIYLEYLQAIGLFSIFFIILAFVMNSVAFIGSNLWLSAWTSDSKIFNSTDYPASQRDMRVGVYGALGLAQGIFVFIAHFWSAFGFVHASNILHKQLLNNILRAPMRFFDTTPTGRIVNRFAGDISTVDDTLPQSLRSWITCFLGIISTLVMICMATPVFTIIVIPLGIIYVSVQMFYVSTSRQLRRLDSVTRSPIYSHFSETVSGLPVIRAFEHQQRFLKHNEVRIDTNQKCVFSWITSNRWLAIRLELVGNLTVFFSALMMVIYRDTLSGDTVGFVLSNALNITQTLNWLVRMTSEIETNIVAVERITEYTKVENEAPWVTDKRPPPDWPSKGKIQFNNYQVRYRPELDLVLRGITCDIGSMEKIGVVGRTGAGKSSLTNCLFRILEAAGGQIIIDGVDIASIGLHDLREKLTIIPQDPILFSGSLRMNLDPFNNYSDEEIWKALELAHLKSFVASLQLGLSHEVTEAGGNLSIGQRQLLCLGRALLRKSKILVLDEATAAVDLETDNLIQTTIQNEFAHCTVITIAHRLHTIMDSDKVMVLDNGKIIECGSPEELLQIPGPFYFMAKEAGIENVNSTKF
Chain of ATP-binding cassette sub-family C member 3 (O15438 whole entry): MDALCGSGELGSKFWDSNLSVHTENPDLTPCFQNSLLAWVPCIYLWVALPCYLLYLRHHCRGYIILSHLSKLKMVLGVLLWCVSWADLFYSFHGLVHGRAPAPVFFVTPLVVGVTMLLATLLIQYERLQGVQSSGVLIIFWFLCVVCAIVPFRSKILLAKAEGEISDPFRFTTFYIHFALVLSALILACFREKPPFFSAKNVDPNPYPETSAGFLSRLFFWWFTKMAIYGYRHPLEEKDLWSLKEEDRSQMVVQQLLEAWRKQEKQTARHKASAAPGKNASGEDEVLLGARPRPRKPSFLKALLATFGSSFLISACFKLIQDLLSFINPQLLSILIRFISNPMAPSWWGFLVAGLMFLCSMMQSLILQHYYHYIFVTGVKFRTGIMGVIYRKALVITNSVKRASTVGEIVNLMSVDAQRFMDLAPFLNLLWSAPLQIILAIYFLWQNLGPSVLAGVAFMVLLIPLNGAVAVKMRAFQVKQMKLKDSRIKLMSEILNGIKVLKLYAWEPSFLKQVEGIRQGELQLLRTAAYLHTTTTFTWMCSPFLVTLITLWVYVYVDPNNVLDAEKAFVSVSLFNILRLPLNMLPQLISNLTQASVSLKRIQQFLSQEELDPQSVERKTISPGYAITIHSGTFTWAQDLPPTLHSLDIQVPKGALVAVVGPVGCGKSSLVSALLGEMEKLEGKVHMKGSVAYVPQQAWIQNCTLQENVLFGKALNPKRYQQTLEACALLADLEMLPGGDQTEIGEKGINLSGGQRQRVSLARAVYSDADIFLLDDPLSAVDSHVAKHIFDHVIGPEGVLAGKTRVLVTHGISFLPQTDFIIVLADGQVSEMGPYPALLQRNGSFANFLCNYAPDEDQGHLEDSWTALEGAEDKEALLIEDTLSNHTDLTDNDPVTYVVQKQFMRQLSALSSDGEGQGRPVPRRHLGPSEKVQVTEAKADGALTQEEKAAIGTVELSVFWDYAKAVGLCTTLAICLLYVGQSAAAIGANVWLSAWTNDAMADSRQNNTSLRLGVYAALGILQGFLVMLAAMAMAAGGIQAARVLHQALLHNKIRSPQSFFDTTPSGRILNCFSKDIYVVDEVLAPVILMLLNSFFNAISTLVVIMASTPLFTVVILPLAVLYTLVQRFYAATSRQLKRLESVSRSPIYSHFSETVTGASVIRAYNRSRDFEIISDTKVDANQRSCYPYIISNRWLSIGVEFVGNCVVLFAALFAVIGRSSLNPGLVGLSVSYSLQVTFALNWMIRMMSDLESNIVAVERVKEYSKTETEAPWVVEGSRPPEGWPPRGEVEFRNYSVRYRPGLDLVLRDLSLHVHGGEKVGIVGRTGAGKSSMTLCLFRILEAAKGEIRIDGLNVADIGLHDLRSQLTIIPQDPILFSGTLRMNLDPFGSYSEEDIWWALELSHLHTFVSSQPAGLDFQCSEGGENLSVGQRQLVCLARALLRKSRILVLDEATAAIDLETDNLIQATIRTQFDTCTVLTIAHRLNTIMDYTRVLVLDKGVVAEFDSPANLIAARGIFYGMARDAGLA

IC50 [2]: 31 µM | IC50 [3]: 61 µM | AUC at 24 h [4]: 22.5 µM·h | concentration at 24 h [5]: 0.939 µM | Ratio [7]: 0.03 | Ratio [8]: 0.015
Structure (SMILES): Cc1c(C)c2c(c(C)c1O)CCC(C)(COc1ccc(CC3SC(=O)NC3=O)cc1)O2 (configuration not stated) [TROGLITAZONE]
IC50 [1]: 3 µM | Ratio [6]: 0.313

IC50 [9]: > 133 µM | IC50 [2]: > 133 µM | IC50 [3]: 1 µM | AUC at 24 h [10]: 284 µM·h | concentration at 24 h [11]: 11.8 µM | Ratio [13]: 11.849
Structure (SMILES): COc1ccc(/C=C/C(=O)Nc2ccccc2C(=O)O)cc1OC
IC50 [1]: 41.5 µM | Ratio [12]: 0.286

Structure (SMILES): CC(=O)O[C@@]12CO[C@@H]1C[C@H](O)[C@@]1(C)C(=O)[C@H](O)C3=C(C)[C@@H](OC(=O)[C@H](O)[C@@H](NC(=O)OC(C)(C)C)c4ccccc4)C[C@@](O)([C@@H](OC(=O)c4ccccc4)[C@H]21)C3(C)C [DOCETAXEL ANHYDROUS]
IC50 [1]: 41 µM | IC50 [9]: > 133 µM | IC50 [2]: > 133 µM | IC50 [3]: > 133 µM | AUC at 1 h [14]: 6.51 µM·h | concentration at 1 h [15]: 6.52 µM | Ratio [16]: 0.16

Structure (SMILES): CC(=O)N1CCN(c2ccc(OCC3COC(Cn4ccnc4)(c4ccc(Cl)cc4Cl)O3)cc2)CC1 (configuration not stated) [KETOCONAZOLE]
IC50 [9]: > 133 µM | IC50 [2]: > 133 µM | IC50 [3]: 69 µM | AUC at 24 h [17]: 31.1 µM·h | concentration at 24 h [18]: 1.29 µM | Ratio [19]: 0.381 | Ratio [20]: 0.019

Structure (SMILES): CC(C)(C)NC(=O)[C@@H]1CN(Cc2cccnc2)CCN1C[C@@H](O)C[C@@H](Cc1ccccc1)C(=O)N[C@H]1c2ccccc2C[C@H]1O.O
IC50 [9]: > 133 µM | IC50 [2]: 83 µM | IC50 [3]: > 133 µM | AUC at 8 h [21]: 45.1 µM·h | concentration at 8 h [22]: 5.64 µM | Ratio [23]: 0.266 | Ratio [24]: 0.068

Source: ChEMBL document CHEMBL4028801, “A multifactorial approach to hepatobiliary transporter assessment enables improved therapeutic compound development” (Toxicol Sci, 2013)
